In US12685733B2, “Indole molecules and use thereof in the inhibition of DNA polymerases” (BioVentures, LLC, priority 2019, dated 2026):
Read-outs that look alike come from different tables or passages of the source.

Legend:
[1] = test system: T98G spheroids; experiment: Spheroid growth rate assay; type: cell-based; details: 50 nM or 500 nM, with or without TMZ, 12 days
Procedure: Cell, spheroid and organoid culture. Grade IV glioma cells (T98G) were obtained from the American Type Culture Collection (ATCC). MCF7 cells were a kind gift from Dr. Timothy Chambers (UAMS). The POLKKO T98G cell lines were generated using CRISPR-Cas9 and validated by immunoblotting (data not shown). For normal culture, these cells were grown in minimum essential media (MEM) containing 10% fetal bovine serum (FBS), 1% (v/v) antibiotic/[…] and incubated at 37° C. in 5% CO2.
For spheroid culture, 24 h prior to plating cells, dishes were coated in 1× poly-HEMA (0.6 g poly-2-hydroxyethyl methacrylate into 50 mL 95% EtOH) under sterile conditions and allowed to dry overnight. Coated dishes were hydrated in 1×PBS for 20 min prior to plating. Spheroids were cultured in NeuroCult NS-A basal medium containing NeuroCult NS-A proliferation supplement, 20 ng/mL human recombinant epidermal growth factor (EGF), 10 ng/mL human recombinant basic fibroblast growth factor (bFGF), and 0.0002% heparin (referred to as NS-A complete medium). […]
Spheroid growth rate assay. […] Spheroids with a diameter of 50 µm or larger were counted as true spheroids and an average size was determined for each well. Changes in average size for each well over the growth time was recorded and used to generate the growth rate. […]

[2] = test system: NT2 cells; experiment: Clonogenic survival assay; type: cell-based, human; details: IAG-10 and TMZ in combination
[3] = test system: hpol κ-proficient HAP-1 cells; experiment: supF mutagenesis assay; details: 1 μM IAG-10, 24 h
Procedure: HAP-1 hpol κ-proficient and hpol κ-deficient cells were cultured in 10 cm dishes to ~80% confluency in Iscove's modified Dulbecco's medium (Invitrogen) containing 10% (v/v) FBS supplemented with Ix antibiotic antimycotic solution (Sigma). They were transfected with unmodified (control) and methylmethanesulfonate (MMS)-modified pSP189 plasmid harboring the supF gene either in the absence or presence of 1 μM IAG-10. For plasmid modification with MMS, the pSP189 plasmid was first incubated with 100 mM MMS in 10 mM HEPES buffer (pH 7.5) containing 50 mM KCl, 5 mM MgCl2, and 1 mM dithiothreitol at RT for 1 h. The MMS-modified plasmid was then purified by ethanol precipitation and used in subsequent transfections, similar to the unmodified plasmid. […] The recovered plasmids (75-100 ng) were then transformed into E. coli MBM7070 strain by electroporation, and the transformed bacterial cells were plated on LB-agar plates containing 100 μg/mL ampicillin, 1 mM isopropyl-I-thio-fi-Dgalactopyranoside (IPTG) and 100 μg/mL X-gaL The resulting blue (nonmutated) and white (mutated) colonies were counted. The mutation frequency was calculated as the ratio of mutant (white) colonies to total (blue+white) colonies. At least 10 000 colonies were counted for each condition, and the results reported represent the mean (±SD) of experiments performed in biological triplicate.

[4] = biological target: T1, hpol η (Homo sapiens, UniProt Q9Y253); experiment: Fluorescence-based DNA polymerase activity assay; type: biochemical; details: for IC50: 95% confidence interval in parentheses, read-out: IC50 for inhibition of hpol η
T1 construct: hpol η (residues 1-437); made in house
T1 sequence (Q9Y253 1-437): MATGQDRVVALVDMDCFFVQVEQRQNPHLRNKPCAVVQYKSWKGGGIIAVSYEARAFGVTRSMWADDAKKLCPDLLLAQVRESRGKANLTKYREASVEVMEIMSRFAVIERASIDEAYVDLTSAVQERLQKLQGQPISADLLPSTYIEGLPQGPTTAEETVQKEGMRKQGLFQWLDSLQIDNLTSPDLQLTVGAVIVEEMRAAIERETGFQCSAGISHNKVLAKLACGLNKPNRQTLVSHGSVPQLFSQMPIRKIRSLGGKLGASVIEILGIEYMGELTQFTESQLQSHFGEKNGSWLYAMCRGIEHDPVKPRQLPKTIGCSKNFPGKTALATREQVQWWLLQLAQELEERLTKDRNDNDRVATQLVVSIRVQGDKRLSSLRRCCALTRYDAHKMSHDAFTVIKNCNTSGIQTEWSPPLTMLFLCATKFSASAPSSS
Text: The impact of IAG-10 on the affinity of hpol κ for DNA was an important insight and one that had not been observed previously with MK-886. It was reasoned that decreasing the concentration of either enzyme or DNA, might affect the IC50 value by shifting the equilibrium away from the formation of binary hpol c: DNA complex and toward the enzyme-inhibitor complex. To investigate this idea, the concentration of hpol and p/t-DNA was varied in the reaction mixture and measured the IC50 value for IAG-10. Decreasing the enzyme and DNA in solution led to a dramatic decrease in the IC50 for IAG-10 against hpol κ (FIG. 4A). […] Then, similar experiments were performed with hpol η by varying the concentration of enzyme and DNA in the reaction mixture an determining the IC50 value for IAG-10-mediated inhibition.

[5] = biological target: T2, Tb pol I (Mycobacterium tuberculosis, UniProt P9WNU5); experiment: Fluorescence-based polymerase assay, other pol families; type: biochemical; details: 10 μM; 10 nM Tb pol I (A-family)
T2 construct: made in house
T2 sequence (P9WNU5 whole entry): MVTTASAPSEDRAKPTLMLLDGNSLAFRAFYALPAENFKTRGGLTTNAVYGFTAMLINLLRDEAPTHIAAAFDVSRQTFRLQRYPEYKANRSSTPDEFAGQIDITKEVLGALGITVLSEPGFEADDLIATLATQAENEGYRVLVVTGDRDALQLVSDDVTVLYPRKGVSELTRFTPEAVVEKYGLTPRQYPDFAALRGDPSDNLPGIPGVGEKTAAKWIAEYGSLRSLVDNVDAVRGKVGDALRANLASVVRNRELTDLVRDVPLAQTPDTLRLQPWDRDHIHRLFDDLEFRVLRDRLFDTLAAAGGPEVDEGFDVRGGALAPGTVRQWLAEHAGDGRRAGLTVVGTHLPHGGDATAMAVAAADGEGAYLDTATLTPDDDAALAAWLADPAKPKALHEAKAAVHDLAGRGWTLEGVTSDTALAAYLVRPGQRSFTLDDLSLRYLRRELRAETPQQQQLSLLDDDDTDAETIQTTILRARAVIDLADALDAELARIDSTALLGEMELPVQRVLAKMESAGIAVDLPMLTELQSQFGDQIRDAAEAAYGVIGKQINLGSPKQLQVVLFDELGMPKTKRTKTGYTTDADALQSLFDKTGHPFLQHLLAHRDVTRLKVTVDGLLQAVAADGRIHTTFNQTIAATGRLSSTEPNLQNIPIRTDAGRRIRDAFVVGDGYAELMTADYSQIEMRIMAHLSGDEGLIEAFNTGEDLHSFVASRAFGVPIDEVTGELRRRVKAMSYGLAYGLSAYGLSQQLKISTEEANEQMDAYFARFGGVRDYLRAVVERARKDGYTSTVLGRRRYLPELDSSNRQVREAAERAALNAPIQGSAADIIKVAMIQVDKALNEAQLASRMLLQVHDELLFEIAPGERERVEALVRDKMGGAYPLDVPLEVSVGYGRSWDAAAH

Cl.[H]/N=C(\N)NN=Cc1cn(C(=O)c2cccc3ccccc23)c2ccc(Cl)cc12 [IAG-10, (E)-2-((1-(1-naphthoyl)-5-chloro-1H-indol-3-y1)methylene)hydrazine-1-carboximidamide hydrochloride]
glioma spheroid growth rate [1]: inhibits glioma spheroid growth rate on its own and also enhances the effects of TMZ
colony formation ability, combination [2]: did not exhibit changes in colony formation ability
mutation frequency for the undamaged plasmid [3]: did not change the mutation frequency
mutation frequency for MMS-damaged DNA over the undamaged control plasmid ([3]; MMS-damaged pSP189): approximately twofold
IC50 ([4]; 2 nM DNA): 22.5 µM
IC50 ([4]; 50 nM DNA): 14.3 µM
Michaelis constant, hpol η ([4]; steady-state kinetics with increasing inhibitor concentration): linear increase
turnover number (kcat), hpol η ([4]; steady-state kinetics with varying inhibitor concentration): no measurable change
polymerase activity relative to DMSO control [5]: only hpol κ activity was inhibited
